Experimental data from patent US20240277670A1, “SAFE USE OF MMP-12 INHIBITOR” (Foresee Pharmaceuticals Co., Ltd., priority 2021, published 2024).
Read-outs that look alike come from different tables or passages of the source.

Assay: Multiple ascending dose (MAD) part, plasma pharmacokinetics
Assay type: in vivo, human
Settings: for CL/F / Kel / AI / CLss/F / Cavg / Cmin / Fl / RAUC2: AUC0-12 (Day 8)/AUC0-inf (Day 1) / AUC(0-t) / AUC(0-inf) / Cmax / half-life / Vd/F: mean; for AUC(0-t) / AUC(0-inf) / Cmax / half-life / Vd/F / Tmax: human, plasma; for Vd/F: read-out: Vz/F; for Tmax: median
Experimental: Three cohorts of eight subjects each (six on active and two on placebo) were enrolled and received the following treatments orally: 100 mg, 200 mg, and 400 mg ASD-in-Capsule b.i.d. (one dose on Days 1 and 8, twice-daily doses from Days 2 to 7) (FIG. 4).
Blood samples were collected post-dosing on Day 1 (at 0.5, 1, 2, 3, 4, 6, 8, 12, and 16 hours) and Day 8 (at 0.5, 1, 2, 3, 4, 6, 8, 10, 12, 16, 20, 24, 30, 36, and 48 hours) as well as immediately pre-morning dose on Days 2-7 and 2 hours post-morning dose on Days 4 and 6. Within 15 minutes of collection, blood samples were centrifuged at 2000 rpm for 10 minutes at 4° C., and, subsequently, the plasma was aliquoted, frozen, and stored at −70° C. pending PK analyses.
The samples were subjected to liquid chromatography followed by analyses by tandem mass spectrometry. The lower limit of quantification for the compound of formula (I) was 5 ng/mL.
The plasma PK parameters were derived by non-compartmental analyses using Phoenix® WinNonlin® version 6.3 or higher (Pharsight Corporation Inc., Mountain View, CA, USA). PK variables were summarized using arithmetic mean, standard deviation, median, minimum, maximum, the percent coefficient of variation, geometric mean, and a two-sided 95% confidence limit of the arithmetic mean and the geometric mean.

[1] = Treatment A (100 mg ASD-in-Capsule oral), Day 1
[2] = Treatment A (100 mg, b.i.d. Days 2-7), Day 8
[3] = Treatment B (200 mg ASD-in-Capsule oral), Day 1
[4] = Treatment B (200 mg, b.i.d. Days 2-7), Day 8
[5] = Treatment C (400 mg ASD-in-Capsule oral), Day 1
[6] = Treatment C (400 mg, b.i.d. Days 2-7), Day 8
[7] = oral, Treatment A (100 mg, b.i.d. Days 2-7), Day 8
[8] = oral, Treatment B (200 mg, b.i.d. Days 2-7), Day 8
[9] = oral, Treatment C (400 mg, b.i.d. Days 2-7), Day 8

Cc1cccc(COc2ccc(Sc3ccoc3C3NC(=O)NC3=O)cc2)c1 (centres unmarked) [compound of formula (I)]
CL/F [1]: 28.7 L/h
Kel [1]: 0.106 h⁻¹
AI [2]: 1.59
CLss/F [2]: 23.1 L/h
Cavg [2]: 365 ng/mL
Cmin [2]: 156 ng/mL
Fl [2]: 127%
Kel [2]: 0.0897 h⁻¹
RAUC2: AUC0-12 (Day 8)/AUC0-inf (Day 1) (Treatment A (100 mg, b.i.d. Days 2-7)): 1.25
CL/F [3]: 20.3 L/h
Kel [3]: 0.119 h⁻¹
AI [4]: 1.57
CLss/F [4]: 16.2 L/h
Cavg [4]: 1090 ng/mL
Cmin [4]: 524 ng/mL
Fl [4]: 132%
Kel [4]: 0.0895 h⁻¹
RAUC2: AUC0-12 (Day 8)/AUC0-inf (Day 1) (Treatment B (200 mg, b.i.d. Days 2-7)): 1.26
CL/F [5]: 24.0 L/h
Kel [5]: 0.113 h⁻¹
AI [6]: 1.40
CLss/F [6]: 18.2 L/h
Cavg [6]: 2060 ng/mL
Cmin [6]: 1010 ng/mL
Fl [6]: 142%
Kel [6]: 0.115 h⁻¹
RAUC2: AUC0-12 (Day 8)/AUC0-inf (Day 1) (Treatment C (400 mg, b.i.d. Days 2-7)): 1.28
Steady state achieved (all three dose levels (100, 200, 400 mg b.i.d.)): ≤ 6 days
Increase of Cmax and AUC with dose (from 200 to 400 mg after multiple doses for a week): approximately in a dose-proportional manner
AUC(0-t) (oral, 100 mg, Treatment A (100 mg, b.i.d. Days 2-7), Day 8, read-out: AUC0-12): 4380 ng·h/mL
AUC(0-t) (oral, 200 mg, Treatment B (200 mg, b.i.d. Days 2-7), Day 8, read-out: AUC0-12): 13100 ng·h/mL
AUC(0-t) (oral, 400 mg, Treatment C (400 mg, b.i.d. Days 2-7), Day 8, read-out: AUC0-12): 24700 ng·h/mL
AUC(0-inf) [7]: 6180 ng·h/mL
Cmax [7]: 624 ng/mL
half-life [7]: 8.37 h
Vd/F [7]: 277 L
Tmax [7]: 2 h
AUC(0-inf) [8]: 19200 ng·h/mL
Cmax [8]: 1920 ng/mL
half-life [8]: 8.14 h
Vd/F [8]: 189 L
Tmax [8]: 1.5 h
AUC(0-inf) [9]: 36300 ng·h/mL
Cmax [9]: 3710 ng/mL
half-life [9]: 6.57 h
Vd/F [9]: 158 L
Tmax [9]: 1.5 h
AUC(0-t) (po, 100 mg, Treatment A (100 mg ASD-in-Capsule oral), Day 1, read-out: AUC0-12): 2670 ng·h/mL
AUC(0-t) (po, 100 mg, Treatment A (100 mg ASD-in-Capsule oral), Day 1, read-out: AUC0-24): 3290 ng·h/mL
AUC(0-t) (po, 100 mg, Treatment A (100 mg ASD-in-Capsule oral), Day 1, read-out: AUC0-t): 3290 ng·h/mL
